Measurements: paper PMC4332848 (Clinical cancer research : an official journal of the …, 2013)
Several values for one entry are separate records, joined by “and”; a condition that tells them apart may be missing. Identical values can stand only once. Like-named read-outs stand apart in the source and are kept apart here.

How the values were obtained:
AML / acute leukemias = conditions: cited from earlier work
BCRP [1] = assay: BCRP transcripts in patient leukemic blasts; assay type: in vivo, human; conditions: paired t test, 8 paired samples
[2] = tested on: human leukemia cell lines; conditions: cited from earlier work
BCRP [3] = assay: Functional expression of BCRP in patient blasts; assay type: in vivo, human; conditions: paired t test, 6 paired samples
[4] = tested on: patients with poor-risk or advanced acute leukemias
buccal mucosal cells = assay: Cell-cycle phase distribution, pre vs on vorinostat; assay type: in vivo, human
Leukemia blast cells = assay: TRAIL death and decoy receptor protein expression, pre vs on vorinostat; assay type: in vivo, human
BCRP (ABCG2) = assay: BCRP protein in patient leukemic blasts
Buccal mucosa cells = assay: TRAIL death receptor protein expression, pre vs on vorinostat; assay type: in vivo, human
Pgp = Pgp (Homo sapiens, UniProt P08183); conditions: paired t test, 6 paired samples
Chain of Pgp (P08183 whole entry): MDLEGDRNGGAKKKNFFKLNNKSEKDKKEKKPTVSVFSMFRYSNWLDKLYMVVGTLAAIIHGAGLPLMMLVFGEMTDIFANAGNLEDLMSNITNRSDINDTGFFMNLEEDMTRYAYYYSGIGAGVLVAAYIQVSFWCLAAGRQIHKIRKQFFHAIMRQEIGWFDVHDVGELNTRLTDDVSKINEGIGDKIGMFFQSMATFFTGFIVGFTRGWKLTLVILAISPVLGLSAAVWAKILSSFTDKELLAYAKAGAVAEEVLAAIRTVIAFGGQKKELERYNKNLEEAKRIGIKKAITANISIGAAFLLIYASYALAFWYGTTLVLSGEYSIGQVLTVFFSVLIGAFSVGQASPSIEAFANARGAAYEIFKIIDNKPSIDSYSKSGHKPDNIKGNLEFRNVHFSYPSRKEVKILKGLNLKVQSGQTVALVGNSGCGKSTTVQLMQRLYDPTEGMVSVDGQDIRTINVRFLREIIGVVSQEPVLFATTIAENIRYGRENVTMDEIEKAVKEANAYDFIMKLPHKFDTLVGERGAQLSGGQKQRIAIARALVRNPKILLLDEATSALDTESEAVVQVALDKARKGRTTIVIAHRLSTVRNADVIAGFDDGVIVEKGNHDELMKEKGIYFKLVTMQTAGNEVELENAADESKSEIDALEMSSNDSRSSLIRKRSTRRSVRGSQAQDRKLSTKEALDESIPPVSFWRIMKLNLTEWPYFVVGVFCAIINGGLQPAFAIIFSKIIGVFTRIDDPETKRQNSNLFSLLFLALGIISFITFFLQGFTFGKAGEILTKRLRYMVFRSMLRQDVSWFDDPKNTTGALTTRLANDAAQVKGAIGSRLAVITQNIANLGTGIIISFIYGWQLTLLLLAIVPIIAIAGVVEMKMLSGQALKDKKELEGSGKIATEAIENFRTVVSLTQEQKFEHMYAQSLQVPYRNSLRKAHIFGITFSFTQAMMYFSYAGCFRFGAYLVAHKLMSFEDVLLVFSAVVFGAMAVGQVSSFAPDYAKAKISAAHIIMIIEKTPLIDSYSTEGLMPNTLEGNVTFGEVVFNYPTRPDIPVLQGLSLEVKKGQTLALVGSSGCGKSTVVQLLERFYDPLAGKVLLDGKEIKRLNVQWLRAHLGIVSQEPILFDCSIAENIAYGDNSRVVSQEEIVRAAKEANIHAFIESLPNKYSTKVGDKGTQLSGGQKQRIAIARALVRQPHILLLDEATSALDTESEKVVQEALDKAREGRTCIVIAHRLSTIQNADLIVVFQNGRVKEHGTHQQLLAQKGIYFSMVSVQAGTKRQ

leukemic blasts = assay: Cell-cycle phase distribution, pre vs on vorinostat; assay type: in vivo, human; conditions: Mean
Pgp (ABCB1) = conditions: individual patients' blasts on vorinostat; D < 0.15 = no overexpression
[5] = Serum vorinostat pharmacokinetics; assay type: in vivo, human; conditions: for AUC(0-t): AUC0-8 h; for AUC(0-inf): AUC0-inf
HL-60/W [6] = assay: Control studies for DR or DcR expression; assay type: cell-based, human
HL-60/W [7] = conditions: HL-60 cells, 24-hour exposure to 1 μmol/L vorinostat; cited from earlier work
[8] = human, serum, oral, 200 mg, Median, N 21

Nc1ccccc1NC(=O)c1ccc(CNC(=O)OCc2cccnc2)cc1 [MS-275]
clinical responses using classical criteria (AML / acute leukemias; phase I study, 38 adults with advanced acute leukemias): no clinical responses

CCCC(CCC)C(=O)O [valproic acid]
response rate (AML / acute leukemias; frail or elderly patients with AML, valproic acid alone or in combination with all-trans retinoic acid): 5%

O=C(CCCCCCC(=O)Nc1ccccc1)NO [vorinostat, suberoylanilide hydroxamic acid]
patients with MDR1 expression increased in the on treatment samples (MDR1; 7 of 8 paired samples, 95% CI, 50%–99%): 88% | MDR1 mRNA expression, on vs pre vorinostat among all patients (MDR1; paired t test, 8 paired samples): no significant alteration | BCRP mRNA expression, on vs pre vorinostat among all patients (BCRP [1]): no significant alteration | interaction between vorinostat and etoposide [2]: synergy | interaction with anthracyclines and etoposide, in vitro cytotoxicity studies [2]: additively or synergistically | interaction, concomitant administration of cytarabine and vorinostat [2]: antagonism | interaction, sequential administration of vorinostat followed by cytarabine [2]: synergism | concentrations giving significant reduction in the percentage of S-phase cells ([2]; within 24 hours after in vitro exposure): ≥ 1 µmol/L | BCRP function, on vs pre vorinostat (BCRP [3]): no difference in function | DLTs ([4]; DL1, 200 mg vorinostat p.o. twice a day): No DLTs | DLTs ([4]; DL2, 200 mg vorinostat 3 times a day, among 5 dose-escalation-evaluable patients): 2 | % G0–G1 (buccal mucosal cells; Mean, N= 17, On vorinostat (days 4 to 7), Pre mean 77.99, P 0.5705): 79.85% | % G2–M (buccal mucosal cells; Mean, N= 17, On vorinostat, Pre mean 2.14, P 0.2586): 3.26% | %S (buccal mucosal cells; Mean, N= 17, On vorinostat, Pre mean 11.49, P 0.9168): 11.30% | % sub-G0–G1 (buccal mucosal cells; Mean, N= 17, On vorinostat, Pre mean 11.74, P 0.1942): 7.79% | alteration in any cell-cycle phase upon treatment (buccal mucosal cells; pre vs on vorinostat, 17 patients): no statistically significant alteration | Percentage of cells expressing DcR2 (Leukemia blast cells; Mean, N 11, On vorinostat, Pre mean 15.83, P 0.5279): 17.56 (11) | Percentage of cells expressing DcR1 (Leukemia blast cells; Mean, N 11, On vorinostat, Pre mean 17.59, P 0.1364): 25.97 (11) | Percentage of cells expressing DR4 (Leukemia blast cells; Mean, N 14, On vorinostat, Pre mean 12.21, P 0.5498): 13.82 (14) | Percentage of cells expressing DR5 (Leukemia blast cells; Mean, N 14, On vorinostat, Pre mean 14.75, P 0.3617): 17.68 (14) | DR4, DR5, DcR1, DcR2 expression, pre vs on vorinostat (Leukemia blast cells; two-sample paired t test or Wilcoxon signed-rank test): no significant differences | BCRP Protein, ON (Kolmogorov–Smirnov D value) (BCRP (ABCG2); individual patients' blasts on vorinostat, D < 0.15 = no overexpression): 0.05 and 0.15 and 0.19 | BCRP protein expression following treatment (BCRP (ABCG2); patients 17 and 24): slight decreases | Percentage of cells expressing DR5 (Buccal mucosa cells; Mean, N 4, On vorinostat, Pre mean 26.46, P 0.9316): 25.98 (4) | Percentage of cells expressing DR4 (Buccal mucosa cells; Mean, N 4, On vorinostat, Pre mean 27.90, P 0.5873): 41.39 (4) | DR4 or DR5 expression, pre vs on vorinostat (Buccal mucosa cells; limited samples): no statistically significant differences | Pgp function, on vs pre vorinostat (Pgp): no difference in function | % G0–G1 (leukemic blasts; N = 16, On vorinostat (days 4 to 7), Pre mean 83.97, P 0.1519): 87.60% | % G2–M (leukemic blasts; N = 16, On vorinostat, Pre mean 3.83, P 0.7556): 3.55% | % sub-G0/G1 (leukemic blasts; N = 16, On vorinostat, Pre mean 4.29, P 0.0693): 2.60% | %S (leukemic blasts; N = 16, On vorinostat, Pre mean 9.22, P 0.2841): 7.17% | Pgp Protein, ON (Kolmogorov–Smirnov D value) (Pgp (ABCB1)): 0.05 and 0.07 and 0.08 | Cmax ([5]; DL2, average): 165.2 ± 64.1 ng/mL | Cl/F ([5]; Geometric mean, N 20): 277 L | Vd/F ([5]; Geometric mean, N 20): 829 L/h | Cl/F ([5]; Mean, N 20, serum, first 200 mg oral dose day 1): 300 L | Cmax ([5]; Mean, N 21, serum, first 200 mg oral dose day 1): 185 ng/mL | Cl/F ([5]; Median, N 20): 265 L | Vd/F ([5]; Median, N 20): 689 L/h | t1/2 ([5]; Median, N 20): 1.7 h | AUC(0-t) ([5]; human, serum, oral, 200 mg, Geometric mean, N 21): 591 ng·h/mL | AUC(0-t) [5, 8]: 623 ng·h/mL | AUC(0-inf) ([5]; human, serum, oral, 200 mg, Geometric mean, N 20): 722 ng·h/mL | AUC(0-inf) ([5]; human, serum, oral, 200 mg, Median, N 20): 757 ng·h/mL | Cmax ([5]; human, serum, oral, 200 mg, Cmax, 65 years or older age group, average): 203 ± 101 ng/mL | Cmax ([5]; human, serum, oral, 200 mg, Cmax, DL1, average): 197 ± 90.4 ng/mL | Cmax ([5]; human, serum, oral, 200 mg, Cmax, less than 65 years of age cohort, average): 174 ± 174 ng/mL | Tmax ([5]; human, serum, oral, 200 mg, 65 years or older age group, average): 1.6 ± 1.1 h | Tmax ([5]; human, serum, oral, 200 mg, DL2, average): 3.5 ± 2 h | Tmax [5, 8]: 2 h | Tmax ([5]; human, serum, oral, 200 mg, less than 65 years of age cohort, average): 3.3 ± 3.3 h | half-life ([5]; human, serum, po, 200 mg): 2.5 h | Tmax ([5]; human, serum, po, 200 mg, Mean, N 21, serum, first 200 mg oral dose day 1): 2.6 h | DcR1, % Positive cells (HL-60/W [6]; 1 μmol/L vorinostat × 24 hours, untreated HL-60/W 23 ± 2): 94.3 ±1.7% | DR5, % Positive cells (HL-60/W [6]; 1 μmol/L vorinostat × 24 hours, untreated HL-60/W 47.3 ± 27): 84.2 ± 6.5% | DR4, % Positive cells (HL-60/W [6]; 1 μmol/L vorinostat × 24 hours, untreated HL-60/W 55.8 ±14): 73.2 ±15% | DcR2, % Positive cells (HL-60/W [6]; 1 μmol/L vorinostat × 24 hours, untreated HL-60/W 56.2 ± 3): 96.3 ±1.1% | DR4, DR5, DcR1, and DcR2 expression (HL-60/W [6]; 24-hour exposure to 1 μmol/L vorinostat, P < 0.02, t test): significantly increases | TRAIL death and decoy receptor expression (HL-60/W [7]): increased DR4 and DR5 expression, but not DcR1 or DcR2 expression
